Source: PMC4290723 (British Journal of Pharmacology, 2014)
Where two headings read alike, the source gives them in different places.

Target: T1, RoDH4 (also named RDH16) (Homo sapiens, UniProt O75452)
T1 sequence (O75452 1-317): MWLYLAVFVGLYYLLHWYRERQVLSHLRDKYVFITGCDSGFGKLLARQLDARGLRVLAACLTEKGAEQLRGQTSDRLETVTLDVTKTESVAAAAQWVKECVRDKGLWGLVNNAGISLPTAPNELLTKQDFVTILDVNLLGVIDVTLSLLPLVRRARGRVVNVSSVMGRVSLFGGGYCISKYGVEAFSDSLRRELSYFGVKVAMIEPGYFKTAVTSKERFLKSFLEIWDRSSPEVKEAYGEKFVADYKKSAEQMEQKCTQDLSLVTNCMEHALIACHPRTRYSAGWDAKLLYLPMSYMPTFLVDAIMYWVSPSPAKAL
Experiment: single-concentration ([…]) inhibition of allopregnanolone oxidation by membranes of RoDH4-transfected HEK293 cells
Format: cell-based

## CN(C)CCCN1c2ccccc2CCc2ccccc21 [imipramine]
HEK293, read-out: % control at 240 μM
  remaining activity at 240 µM: 25.45 ± 0.04%

## NCCC(Oc1ccc(C(F)(F)F)cc1)c1ccccc1 (centres unmarked) [norfluoxetine]
HEK293; read-out: % control at 240 μM
  remaining activity at 240 µM: 37.8 ± 0.95%
